{"source": "patent US9474276B2", "about": "“Synergistic pesticidal compositions and related methods” (Dow AgroSciences LLC, priority 2013, dated 2016)", "system": "diamondback moth, Plutella xylostella", "test": "Bioassay on treated cabbage plants (track sprayer, 400 L/Ha) infested with second instar diamondback moth; synergy judged by Colby's equation", "format": "in vivo", "excerpt": "The method described in Colby S. R., “Calculating Synergistic and Antagonistic Responses of Herbicide Combinations,” Weeds, 1967, 15, 20-22 was used to determine an existence of synergic effect between the inhibitor of chitin biosynthesis, type 1 compound and the pesticide (I), (II), or any agriculturally acceptable salt thereof in the formulated pesticidal composition. In this method, the percent insect control of the formulated pesticidal composition as observed in the study was compared to the “expected” percent control (E) as calculated by equation (1) (hereinafter “Colby's equation”) below:\n[formula] where • X is the percentage of control with the first pesticide at a given rate (p), • Y is the percentage of control with the second pesticide at a given rate (q), and • E is the expected control by the first and second pesticide at a rate of p+q.\nBioassays were performed for different active compounds. Cabbage plants with about two to three new-growth-true leaf stage were treated with different active compounds using a track sprayer application at 400 L/Ha spray volume. Three second instar diamondback moth, Plutella xylostella, were infested onto each leaf disc. The percent control of the pesticidal composition against diamondback moth, Plutella xylostella, was determined as the “Observed” action, and compared to those obtained by using about 0.000625 weight % of compound I, and using about 0.000625 weight % of buprofezin alone. The “Colby's Expected Action” was calculated using Colby's equation as discussed previously.\nBioassays were performed wherein different active compounds were tested against diamondback moth, Plutella xylostella, using the procedure described in example 5A.\nBioassays may be performed for different active compounds against diamondback moth, Plutella xylostella, using the procedure described in example 5A. The percent control may be determined after three days after the treatment.", "key": {"[1]": {"conditions": "Example 5A, active used alone, dose rate 0.000625 weight %, diamondback moth on cabbage"}}}
{"compound": "CCN(C(=O)CCSCCC(F)(F)F)c1cn(-c2cccnc2)nc1Cl", "note": "[Compound I, N-(3-chloro-1-(pyridin-3-yl)-1H-pyrazol-4-yl)-N-ethyl-3-((3,3,3-trifluoropropyl)thio)propanamide]", "values": [{"measurement": "% Control Three Days After Treatment", "setting": "[1]", "result": "no control"}, {"measurement": "% Control Three Days After Treatment", "setting": "Example 5B, compound I alone, dose rate 0.000625 weight %", "result": 0, "unit": "%"}, {"measurement": "% Control Three Days After Treatment", "setting": "Example 5B, compound I alone, dose rate 0.000625 weight %, listed as compound I", "result": "no control"}, {"measurement": "% Control Three Days After Treatment", "setting": "Example 5C, compound I alone, dose rate 0.0025 weight %", "result": 0, "unit": "%"}, {"measurement": "% Control Three Days After Treatment", "setting": "Example 5C, compound I alone, dose rate 0.0025 weight %, listed as compound I", "result": "no control"}]}
{"compound": "CC(C)N1C(=O)N(c2ccccc2)CS/C1=N\\C(C)(C)C", "note": "[Buprofezin, (E,Z)-2-tert-butylimino-3-isopropyl-5-phenyl-1,3,5-thiadiazinan-4-one]", "values": [{"measurement": "% Control Three Days After Treatment", "setting": "[1]", "result": 0, "unit": "%"}, {"measurement": "% Control Three Days After Treatment", "setting": "Example 5A, active used alone, dose rate 0.000625 weight %, diamondback moth on cabbage, listed as buprofezin", "result": "no control"}, {"measurement": "% Control Three Days After Treatment", "setting": "Example 5B, buprofezin alone, dose rate 0.0025 weight %", "result": 0, "unit": "%"}, {"measurement": "% Control Three Days After Treatment", "setting": "Example 5B, buprofezin alone, dose rate 0.0025 weight %, listed as buprofezin", "result": "no control"}, {"measurement": "% Control Three Days After Treatment", "setting": "Example 5C, buprofezin alone, dose rate 0.000625 weight %", "result": 0, "unit": "%"}, {"measurement": "% Control Three Days After Treatment", "setting": "Example 5C, buprofezin alone, dose rate 0.000625 weight %, listed as buprofezin", "result": "no control"}]}
